Counter-ions that a name gives are not always drawn.
Biological target: T1, DPP-IV (Homo sapiens, UniProt P27487)
T1 construct: Soluble human DPP-IV lacking the transmembrane anchor (Gly31-Pro766); Pre-Pro-alpha-mating factor secretion leader (N, cleaved yes); made in house
Test: Continuous fluorimetric assay of inhibition of DPP-IV peptidase activity (cleavage of Gly-Pro-AMC)
Format: biochemical
Conditions: substrate Gly-Pro-AMC 16 μM, pH 7.4, 25° C., 1% DMSO; assays carried out with human and porcine DPP-IV (comparable activities)
Method: Inhibition of DPP-IV peptidase activity was monitored with a continuous fluorimetric assay. This assay is based on the cleavage of the substrate Gly-Pro-AMC (Bachem) by DPP-IV, releasing free AMC. The assay is carried out in 96-well microtiterplates. In a total volume of 100 μl compounds are preincubated with […] DPP-IV employing a buffer containing 10 mM Hepes, 150 mM NaCl, 0.005% Tween 20 (pH 7.4). […] The final concentration of DMSO is 1%. The inhibitory potential of the compounds were determined.
Soluble human DPP-IV lacking the transmembrane anchor (Gly31-Pro766) was expressed in a recombinant YEAST-strain as Pre-Pro-alpha-mating fusion. The secreted product (rhuDPP-IV-Gly31-Pro766) was purified from fermentation broth (>90% purity).

T1 sequence (P27487 31-766): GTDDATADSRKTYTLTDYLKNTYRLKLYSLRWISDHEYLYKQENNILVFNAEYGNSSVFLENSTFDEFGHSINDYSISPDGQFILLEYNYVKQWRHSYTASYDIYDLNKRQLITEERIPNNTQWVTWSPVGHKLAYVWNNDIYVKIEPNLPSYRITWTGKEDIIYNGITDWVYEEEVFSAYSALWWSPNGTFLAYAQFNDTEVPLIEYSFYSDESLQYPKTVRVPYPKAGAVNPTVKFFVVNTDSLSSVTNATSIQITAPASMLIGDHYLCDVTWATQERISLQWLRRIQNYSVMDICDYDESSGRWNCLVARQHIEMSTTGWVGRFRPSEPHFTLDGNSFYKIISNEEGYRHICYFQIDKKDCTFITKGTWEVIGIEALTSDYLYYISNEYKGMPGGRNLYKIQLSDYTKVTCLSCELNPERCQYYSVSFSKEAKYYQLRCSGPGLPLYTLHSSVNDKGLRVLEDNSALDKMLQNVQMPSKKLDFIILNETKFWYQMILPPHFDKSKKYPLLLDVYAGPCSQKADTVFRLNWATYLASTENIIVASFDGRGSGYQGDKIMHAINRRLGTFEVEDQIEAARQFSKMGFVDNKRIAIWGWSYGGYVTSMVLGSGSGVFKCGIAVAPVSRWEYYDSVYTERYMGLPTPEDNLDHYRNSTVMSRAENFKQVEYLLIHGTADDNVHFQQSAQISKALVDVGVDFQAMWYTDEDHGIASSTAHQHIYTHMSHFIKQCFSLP

N[C@@H](CC(=O)N1CCC[C@H]1c1nc(-c2ccccc2)no1)Cc1ccccc1F [Example 1, (R)-3-Amino-4-(2-fluoro-phenyl)-1-[(S)-2-(3-phenyl-[1,2,4]oxadiazol-5-yl)-pyrrolidin-1-yl]-butan-1-one hydrochloride]
IC50: < 0.1 µM

N[C@@H](CC(=O)N1CCC[C@H]1c1nc(-c2cccc(Cl)c2)no1)Cc1ccccc1F [Example 2, (R)-3-Amino-1-{(S)-2-[3-(3-chloro-phenyl)[1,2,4]oxadiazol-5-yl)-pyrrolidin-1-yl}-4-(2-fluoro-phenyl)-butan-1-one hydrochloride]
IC50: < 0.1 µM

N[C@@H](CC(=O)N1CCC[C@H]1c1nc(-c2cccc(F)c2)no1)Cc1ccccc1F [Example 3, (R)-3-Amino-1-{(S)-2-[3-(3-fluoro-phenyl) [1,2,4]oxadiazol-5-yl)-pyrrolidin-1-yl}-4-(2-fluoro-phenyl)-butan-1-one hydrochloride]
IC50: < 0.1 µM

CS(=O)(=O)c1ccc(-c2noc([C@@H]3CCCN3C(=O)C[C@H](N)Cc3ccccc3F)n2)cc1 [Example 4, (R)-3-Amino-4-(2-fluoro-phenyl)-1-{(S)-2-[3-(4-methanesulphonyl-phenyl)[1,2,4]oxadiazol-5-yl]-pyrrolidin-1-yl}-butan-1-one hydrochloride]
IC50: < 0.1 µM

N[C@@H](CC(=O)N1CCC[C@H]1c1nc(-c2ccccn2)no1)Cc1ccccc1F [Example 5, (R)-3-Amino-4-(2-fluoro-phenyl)-1-[(S)-2-(3-pyridin-2-yl-[1,2,4]oxadiazol-5-yl)-pyrrolidin-1-yl]-butan-1-one]
IC50: < 0.1 µM

N[C@@H](CC(=O)N1CCC[C@H]1c1nc(-c2cccc(F)c2)no1)Cc1cccc(Cl)c1 [Example 6, (R)-3-Amino-4-(3-chloro-phenyl)-1-{(S)-2-[3-(3-fluoro-phenyl)-[1,2,4]oxadiazol-5-yl]-pyrrolidin-1-yl}-butan-1-one trifluoroacetic acid salt]
IC50: < 0.1 µM

N[C@@H](CC(=O)N1CCC[C@H]1c1nc(-c2cc(F)cc(F)c2)no1)Cc1ccccc1F [Example 7, (R)-3-Amino-1-{(S)-2-[3-(3,5-difluoro-phenyl)-[1,2,4]oxadiazol-5-yl)-pyrrolidin-1-yl}-4-(2-fluoro-phenyl)-butan-1-one trifluoracetic acid salt]
IC50: < 0.1 µM

N[C@@H](CC(=O)N1CCC[C@H]1c1nc(-c2ccc(F)cc2F)no1)Cc1ccccc1F [Example 8, (R)-3-Amino-1-{(S)-2-[3-(2,4-difluoro-phenyl)-[1,2,4]oxadiazol-5-yl)-pyrrolidin-1-yl}-4-(2-fluoro-phenyl)-butan-1-one trifluoracetic acid salt]
IC50: < 0.1 µM

CS(=O)(=O)c1cccc(-c2noc([C@@H]3CCCN3C(=O)C[C@H](N)Cc3ccccc3F)n2)c1 [Example 9, (R)-3-Amino-1-{(S)-2-[3-(3-methanesulphonyl-phenyl)-[1,2,4]oxadiazol-5-yl)-pyrrolidin-1-yl}-4-(2-fluoro-phenyl)-butan-1-one trifluoracetic acid salt]
IC50: < 0.1 µM

CS(=O)(=O)Nc1ccc(-c2noc([C@@H]3CCCN3C(=O)C[C@H](N)Cc3ccccc3F)n2)cc1 [Example 10, N-[4-(5-{(S)-1-[(R)-3-Amino-4-(2-fluoro-phenyl)-butyryl]-pyrrolidin-2-yl}-[1,2,4]oxadiazol-3-yl)-phenyl]-methanesulphonamide trifluoroacetic acid salt]
IC50: < 0.1 µM

N[C@@H](CC(=O)N1CCC[C@H]1c1nc(C2CC2)no1)Cc1ccccc1F [Example 11, (R)-3-Amino-1-[(S)-2-(3-cyclopropyl-[1,2,4]oxadiazol-5-yl)-pyrrolidin-1-yl]-4-(2-fluorophenyl)-butan-1-one trifluoracetic acid salt]
IC50: < 0.1 µM

N[C@@H](CC(=O)N1CCC[C@H]1c1nc(C2CCC2)no1)Cc1cc(F)c(F)cc1F [Example 15, (R)-3-Amino-1-[(S)-2-(3-cyclobutyl-[1,2,4]oxadiazol-5-yl)-pyrrolidin-1-yl]-4-(2,4,5-trifluoro-phenyl)-butan-1-one formate salt]
IC50: < 0.1 µM

COCC(C)(C)c1noc([C@@H]2CCCN2C(=O)C[C@H](N)Cc2cc(F)c(F)cc2F)n1 [Example 24, (R)-3-Amino-1-{(S)-2-[3-(2-methoxy-1,1-dimethyl-ethyl)-[1,2,4]oxadiazol-5-yl]-pyrrolidin-1-yl}-4-(2,4,5-trifluoro-phenyl)-butan-1-one formate salt]
IC50: < 0.1 µM

COCC1(c2noc([C@@H]3CCCN3C(=O)C[C@H](N)Cc3cc(F)c(F)cc3F)n2)CC1 [Example 25, (R)-3-Amino-1-{(S)-2-[3-(1-methoxymethyl-cyclopropyl)-[1,2,4]oxadiazol-5-yl]-pyrrolidin-1-yl}-4-(2,4,5-trifluoro-phenyl)-butan-1-one formate salt]
IC50: < 0.1 µM

N[C@@H](CC(=O)N1CC(F)(F)C[C@H]1c1nc(C2CC2)no1)Cc1cc(F)c(F)cc1F [Example 27, (R)-3-Amino-1-[(S)-2-(3-cyclopropyl-[1,2,4]oxadiazol-5-yl)-4,4-difluoro-pyrrolidin-1-yl]-4-(2,4,5-trifluoro-phenyl)-butan-1-one formate salt]
IC50: < 0.1 µM

N[C@@H](CC(=O)N1CCC[C@@H]1c1nc(-c2ccccc2)no1)Cc1ccccc1F [Example 28, (R)-3-Amino-4-(2-fluoro-phenyl)-1-[(R)-2-(3-phenyl-[1,2,4]oxadiazol-5-yl)-pyrrolidin-1-yl]-butan-1-one hydrochloride]
IC50: 0.101 to 1 µM

N[C@@H](CC(=O)N1CCC[C@@H]1c1nc(-c2cccc(Cl)c2)no1)Cc1ccccc1F [Example 29, (R)-3-Amino-1-{(R)-2-[3-(3-chloro-phenyl) [1,2,4]oxadiazol-5-yl)-pyrrolidin-1-yl}-4-(2-fluoro-phenyl)-butan-1-one hydrochloride]
IC50: 0.101 to 1 µM

N[C@@H](CC(=O)N1CCC[C@@H]1c1nc(-c2cccc(F)c2)no1)Cc1ccccc1F [Example 30, (R)-3-Amino-1-{(R)-2-[3-(3-fluoro-phenyl) [1,2,4]oxadiazol-5-yl)-pyrrolidin-1-yl}-4-(2-fluoro-phenyl)-butan-1-one hydrochloride]
IC50: 0.101 to 1 µM

CS(=O)(=O)c1ccc(-c2noc([C@H]3CCCN3C(=O)C[C@H](N)Cc3ccccc3F)n2)cc1 [Example 31, (R)-3-Amino-4-(2-fluoro-phenyl)-1-{(R)-2-[3-(4-methanesulphonyl-phenyl) [1,2,4]oxadiazol-5-yl]-pyrrolidin-1-yl}-butan-1-one hydrochloride]
IC50: < 0.1 µM

N[C@@H](CC(=O)N1CCC[C@@H]1c1nc(-c2ccccn2)no1)Cc1ccccc1F [Example 32, (R)-3-Amino-4-(2-fluoro-phenyl)-1-[(R)-2-(3-pyridin-2-yl-[1,2,4]oxadiazol-5-yl)pyrrolidin-1-yl]-butan-1-one hydrochloride]
IC50: 0.101 to 1 µM

N[C@@H](CC(=O)N1CCC[C@H]1c1noc(-c2ccc(F)cn2)n1)Cc1cc(F)c(F)cc1F [Example 36, (R)-3-Amino-1-{(S)-2-[5-(5-fluoro-pyridin-2-yl)-[1,2,4]oxadiazol-3-yl]-pyrrolidin-1-yl}-4-(2,4,5-trifluoro-phenyl)-butan-1-one formate salt]
IC50: < 0.1 µM

N[C@@H](CC(=O)N1CCC[C@H]1c1nc2cc(Cl)ccc2[nH]1)Cc1ccccc1F [Example 40, (R)-3-Amino-1-[(S)-2-(5-chloro-1H-benzoimidazol-2-yl)-pyrrolidin-1-yl]-4-(2-fluorophenyl)-butan-1-one trifluoroacetic acid salt]
IC50: < 0.1 µM

N[C@@H](CC(=O)N1CCC[C@H]1c1ncc(-c2ccccc2)[nH]1)Cc1ccccc1F [Example 41, formate salt]
IC50: 0.101 to 1 µM

N[C@@H](CC(=O)N1CCC[C@H]1c1cn(-c2ccccc2)nn1)Cc1ccccc1F [Example 42, formate salt]
IC50: 0.101 to 1 µM

N[C@@H](CC(=O)N1CCC[C@H]1c1ncn(-c2ccccc2)n1)Cc1ccccc1F [Example 43, formate salt]
IC50: < 0.1 µM

N[C@@H](CC(=O)N1CCC[C@H]1c1nnc(-c2ccccc2)[nH]1)Cc1ccccc1F [Example 44, formate salt]
IC50: 0.101 to 1 µM

N[C@@H](CC(=O)N1CCC[C@H]1c1nc(-c2ccccc2)co1)Cc1ccccc1F [Example 45, formate salt]
IC50: < 0.1 µM

N[C@@H](CC(=O)N1CCC[C@H]1c1nnc(-c2ccccc2)o1)Cc1ccccc1F [Example 46, formate salt]
IC50: 0.101 to 1 µM

N[C@@H](CC(=O)N1CCC[C@H]1c1ccn(-c2ccccc2)n1)Cc1ccccc1F [Example 47, formate salt]
IC50: 0.101 to 1 µM

CC(C)(C)n1cnc([C@@H]2CCCN2C(=O)C[C@H](N)Cc2cc(F)c(F)cc2F)n1 [Example 48]
IC50: < 0.1 µM

CC(C)(C)c1noc([C@@H]2CCN2C(=O)C[C@H](N)Cc2cc(F)c(F)cc2F)n1 [Example 49, (R)-3-Amino-1-[(S)-2-(3-tert-butyl-[1,2,4]oxadiazol-5-yl)-azetidin-1-yl]-4-(2,4,5-trifluorophenyl)-butan-1-one formate salt]
IC50: < 0.1 µM

N[C@@H](CC(=O)N1CC(N2CCC(C(F)(F)F)CC2)C1)Cc1ccccc1F [Example 50, (3R)-3-Amino-4-(2-fluoro-phenyl)-1-[3-(4-trifluoromethyl-piperidin-1-yl)-azetidin-1-yl]-butan-1-one]
IC50: 1 to 2 µM

N[C@@H](CC(=O)N1CC(N2CCN(c3ccccn3)CC2)C1)Cc1ccccc1F [Example 51, (3R)-3-Amino-4-(2-fluoro-phenyl)-1-[3-(4-pyridin-2-yl-piperazin-1-yl)-azetidin-1-yl]-butan-1-one]
IC50: 1 to 2 µM

From patent publication US20080015146A1, “Dpp-IV Inhibitors” (SANTHERA PHARMACEUTICALS (DEUTSCHLAND) AG, priority 2004, published 2008)
